Measurements as given in ChEMBL document CHEMBL5728324, “Inhibitors of Hepatitis C virus polymerase” (2021).

Assay: HCV Replicon Assay and EC50 Determination: HCV replicon assay is based on the luciferase reporter cell line (Huh-luc/neo-ET). This reporter cell line is a human liver carcinoma cell line (Huh-7) stably transfected with an autonomously replicating bicistronic HCV subgenomic RNA replicon (Lohmann et al., 1999, Science, 285, 110-113). Inhibition of HCV RNA replication was monitored through analysis of reporter luciferase activity. Briefly, HCV replicon cells were incubated with inhibitors for 72 hours at 37° C. After the incubation, duplicate plates were treated and incubated in parallel for assessment of cellular toxicity by XTT staining and anti-HCV activity by measurement of luciferase reporter activity. Either human interferon alpha 2B or ribavirin was used as a reference compound. EC50 values were determined using GraFit (Erithaus software) or Excel.

Row | Structure (SMILES) | EC50 [nM]
1 | CNC(=O)c1c(-c2ccc(F)cc2)oc2cc(N(CC(=O)NC3(C(=O)NCc4cccc(C(=O)/C=C(\O)C(=O)O)c4)CCCC3)S(C)(=O)=O)c(C3CC3)cc12 | 100 to 1000
2 | CNC(=O)c1c(-c2ccc(F)cc2)oc2cc(N(CCCCCOCc3ccc(C(=O)O)cc3)S(C)(=O)=O)c(C3CC3)cc12 | < 100
3 | CNC(=O)c1c(-c2ccc(F)cc2)oc2cc(N(CCOCCOCc3cccc(C(=O)/C=C(\O)C(=O)O)c3)S(C)(=O)=O)c(C3CC3)cc12 | < 100
4 | CNC(=O)c1c(-c2ccc(F)cc2)oc2cc(N(CCCCOCCc3ccc(C(=O)O)cc3)S(C)(=O)=O)c(C3CC3)cc12 | < 100
5 | CNC(=O)c1c(-c2ccc(F)cc2)oc2cc(N(CCOCCOCc3ccc(C(=O)O)cc3)S(C)(=O)=O)c(C3CC3)cc12 | 100 to 1000
6 | CNC(=O)c1c(-c2ccc(F)cc2)oc2cc(N(CCCCCCCc3ccc(C(=O)O)cc3)S(C)(=O)=O)c(C3CC3)cc12 | < 100
7 | CNC(=O)c1c(-c2ccc(F)cc2)oc2cc(N(CCOCCOCCOC(C(=O)O)c3ccccc3)S(C)(=O)=O)c(C3CC3)cc12 (centres undefined) | 100 to 1000
8 | CNC(=O)c1c(-c2ccc(F)cc2)oc2cc(N(CCOCCCc3cccc(C(=O)/C=C(\O)C(=O)O)c3)S(C)(=O)=O)c(C3CC3)cc12 | < 100
9 | CNC(=O)c1c(-c2ccc(F)cc2)oc2cc(N(CCOCCCOCc3cccc(C(=O)/C=C(\O)C(=O)O)c3)S(C)(=O)=O)c(C3CC3)cc12 | < 100
10 | CNC(=O)c1c(-c2ccc(F)cc2)oc2cc(N(CCOCCOCc3cccc(C(=O)O)c3)S(C)(=O)=O)c(C3CC3)cc12 | < 100
11 | CNC(=O)c1c(-c2ccc(F)cc2)oc2cc(N(CCOCCOCCOCC(=O)NO)S(C)(=O)=O)c(C3CC3)cc12 | < 100
12 | CNC(=O)c1c(-c2ccc(F)cc2)oc2cc(N(CC(=O)NC(C)(C)C(=O)NCc3cccc(C(=O)/C=C(\O)C(=O)O)c3)S(C)(=O)=O)c(C3CC3)cc12 | 100 to 1000
13 | CNC(=O)c1c(-c2ccc(F)cc2)oc2cc(N(CCOCCOCc3ccc(OC)c(C(=O)O)c3)S(C)(=O)=O)c(C3CC3)cc12 | 100 to 1000
14 | CNC(=O)c1c(-c2ccc(F)cc2)oc2cc(N(CCOCCOCCOCCO)S(C)(=O)=O)c(C3CC3)cc12 | 100 to 1000
15 | CNC(=O)c1c(-c2ccc(F)cc2)oc2cc(N(CCOC(=O)CNC(=O)CCCC(=O)O)S(C)(=O)=O)c(C3CC3)cc12 | 100 to 1000
16 | CNC(=O)c1c(-c2ccc(F)cc2)oc2cc(N(CCOCCOCCOC(C)C(=O)O)S(C)(=O)=O)c(C3CC3)cc12 (centres undefined) | < 100
17 | CNC(=O)c1c(-c2ccc(F)cc2)oc2cc(N(CCOCCOCCOCCOCCOCCOCc3cccc(C(=O)/C=C(\O)C(=O)O)c3)S(C)(=O)=O)c(C3CC3)cc12 | 100 to 1000
18 | CNC(=O)c1c(-c2ccc(F)cc2)oc2cc(N(CC(=O)NCC(=O)NCc3cccc(C(=O)/C=C(\O)C(=O)O)c3)S(C)(=O)=O)c(C3CC3)cc12 | 100 to 1000
19 | CNC(=O)c1c(-c2ccc(F)cc2)oc2cc(N(CC(=O)NC(C)C(=O)NCc3cccc(C(=O)/C=C(\O)C(=O)O)c3)S(C)(=O)=O)c(C3CC3)cc12 (centres undefined) | 100 to 1000
20 | CNC(=O)c1c(-c2ccc(F)cc2)oc2cc(N(CCOCCOCCOCC(=O)O)S(C)(=O)=O)c(C3CC3)cc12 | 100 to 1000
21 | CNC(=O)c1c(-c2ccc(F)cc2)oc2cc(N(CCOCCOCc3cccc(C(C)=O)c3)S(C)(=O)=O)c(C3CC3)cc12 | < 100
22 | CNC(=O)c1c(-c2ccc(F)cc2)oc2cc(N(CCOCCOCc3ccc(C(=O)/C=C(\O)C(=O)O)cc3)S(C)(=O)=O)c(C3CC3)cc12 | < 100
23 | CNC(=O)c1c(-c2ccc(F)cc2)oc2cc(N(CCOCCOCc3ccccc3C(=O)O)S(C)(=O)=O)c(C3CC3)cc12 | < 100
24 | CNC(=O)c1c(-c2ccc(F)cc2)oc2cc(N(CCOCCOCc3ccc(F)c(C(=O)O)c3)S(C)(=O)=O)c(C3CC3)cc12 | < 100
